Source: PubChem BioAssay (NCI)
Where “and” joins values, the source holds several entries; their conditions need not be identical. Identical values can stand only once.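 Cells were grown in 96-well plates and exposed to each compound for 48 hours at five concentrations; endpoints were interpolated linearly between bracketing concentrations, or set to the highest concentration if not reached. GI50 = concentration required for 50% inhibition of growth. TGI: concentration producing complete growth inhibition.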 Where a SMILES comes first, the peptide text is derived from it. The star is where a group is joined. Trt = c1ccc(C(c2ccccc2)(c2ccccc2)*)cc1; Cbz = O=C(OCc1ccccc1)*

What was measured:
Assay in all cases: NCI anticancer screen, dose series, 48 h
[1] = system: MOLT-4 leukemia
[2] = system: OVCAR-4 ovarian
[3] = system: ACHN renal
[4] = system: HCC-2998 colon
[5] = system: SK-MEL-2 melanoma
[6] = system: MDA-MB-435
[7] = system: NCI/ADR-RES ovarian
[8] = system: UO-31 renal
[9] = system: PC-3 prostate
[10] = system: NCI-H23 lung

Compound	GI50 [1] [µM]	TGI [1] [µM]	GI50 [2] [µM]	TGI [2] [µM]	GI50 [3] [µM]	TGI [3] [µM]	GI50 [4] [µM]	TGI [4]	GI50 [5] [µM]	TGI [5] [µM]	GI50 [6] [µM]	TGI [6] [µM]	GI50 [7] [µM]	TGI [7]	GI50 [8] [µM]	TGI [8] [µM]	GI50 [9] [µM]	TGI [9] [µM]	GI50 [10] [µM]	TGI [10]
CN1CCN(c2ccc3nc(-c4ccc(OCCCCN5CCN(CCCCN6C(=O)c7cccc8cccc(c78)C6=O)CC5)cc4)[nH]c3c2)CC1	51.1	> 100	> 100	> 100	25.6	64.1	> 100	> 100 µM	95.6	> 100	41	> 100	> 100	> 100 µM	58.4	> 100	69.3	> 100	> 100	> 100 µM
NC(=O)c1ccc(N(C(N)=O)c2c(F)cccc2F)nc1-c1ccc(F)cc1F	> 100	> 100	> 100	> 100	> 100	> 100	> 100	> 100 µM	> 100	> 100	> 100	> 100	> 100	> 100 µM	> 100	> 100	> 100	> 100	> 100	> 100 µM
Cc1ccc(S(=O)(=O)NC(CO)C(=O)O)cc1 (stereo unspecified)		> 100		> 100		> 100		> 100 µM		> 100		> 100		> 100 µM		> 100		> 100		> 100 µM
H-QIYKKYRTWYRKAWKVLGKV-NH2	11.7	79.5	9.03	50.5	12	25.5	17.5	63.4 µM	16.5	49.8	5.75	36.9	4.81	> 100 µM	19.2	39.5	3.82	20	3.96	30.1 µM
COc1cccc(NC2=C(Cl)C(=O)N(Cc3ccc(Cl)cc3)C2=O)c1	1.36	> 100	9.69	> 71.5	6.43	49.2	2.64	12.7 µM	12.5	> 23.8	0.234	1.61	1.22	5.39 µM	7.88	31.7	1.68	10.4	2.84	9.81 µM
CC(/C=N/N=C(N)N)=N\N=C(N)N	28.2	463	13.2	95.3	> 43.5	2110	9.52	> 48.3 µM and 62.7 µM	28.9	149	23	452	20.8	61.1 µM and 126 µM	11	552	40.3	1300	31.1	> 61.8 µM and 171 µM
O=C(CCCCCCCCC(=O)N/N=C\c1cc(Cl)ccc1O)N/N=C\c1cc(Cl)ccc1O	0.222	17.6	0.315	> 100	0.175	> 100	3.32	> 100 µM	0.441	18.9	0.625	> 100	0.294		0.152	> 100	0.864	> 100	0.636	> 67.3 µM
C=CC(C)(O)CC/C=C(\CO)C(=O)OC1C(C)OC(O[C@](C)(C=C)CC/C=C(\CO)C(=O)O[C@H]2C[C@@]3(C(=O)OC4OC(CO)C(O)C(O)C4OC4OC(C)C(OC5OC(CO)C(O)C5O)C(OC5OC(CO)C(O)C(O)C5O)C4O)C(CC2(C)C)C2=CCC4[C@@]5(C)CC[C@H](OC6OC(COC7OC(C)C(O)C(O)C7OC7OCC(O)C(O)C7O)C(O)C(O)C6NC(C)=O)C(C)(C)C5CC[C@@]4(C)[C@]2(C)C[C@H]3O)C(O)C1O (stereo partly specified)	0.886	12.9	0.11	0.47	0.0771	0.209	0.0688	0.195 µM	0.229	1.5	0.0978	0.382	2.68	7.84 µM	0.234	0.966	0.078	1.97	2.01	7.49 µM
Oc1ccc(Cl)cc1/C=N\NC(=S)N/N=C/c1cc(Cl)ccc1O	2.23	7.62	2.25	50.3	2.35	> 100	3.55	86.8 µM	1.87	10.1	3.74	> 100	2.78	32.8 µM	1.05	15.5	3.13	> 100	4.61	67.7 µM
COc1cc(/C=N/NC(=O)c2ccccc2Nc2cccc(C(F)(F)F)c2)cc(OC)c1OC	3.14	15.3	3.37	15.2	3.3	13.3	5.29	15.6 µM	9.63	33.2	0.476	1.67	3.87	14.4 µM	6.11	21.5	3.34	> 28.1	6.37	23.1 µM
O=Cc1ccc(N2CCN(c3ccc(C=O)cc3)CC2)cc1	> 100	> 100	5.68	> 100	> 100	> 100	60.8	> 100 µM	> 100	> 100	> 100	> 100	> 100	> 100 µM	> 100	> 100	> 100	> 100	> 100	> 100 µM
O=C(/C=C/c1ccc([N+](=O)[O-])cc1)c1cccc(Nc2nc(Nc3ccccc3)nc(Nc3ccccc3)n2)c1	2.6	20	22.1	> 100	27	> 100	18.1	68.6 µM	17.7	54.6	20	> 100	18.2	> 100 µM	2.18	> 100	3.15	30.7	17.5	98.3 µM
COc1ccc(C2=Nc3c/c(=C\c4c(O)[nH]c5cc(Cl)ccc45)ccc3=N2)cc1	4.85	29.9	3.22	13.6	17.3	41.3	10.2	22.1 µM	8.86	26.6	0.26	1.97	5	33.8 µM	10.2	26.7	3.18	28.9	10.2	24.2 µM
CN=C(N)N/N=C(\C)c1ccc2c(c1)Cc1ccccc1-2	0.352	1.49	3.98	19.4	1.78	3.61	1.67	3.09 µM	1.87	3.81	1.64	3.15	2.02	4.5 µM	1.43	2.89	2.39	10.3	2.84	12.3 µM
O=C(C=C=Nc1ccccc1)C(=O)N=C=Cc1ccccc1	1.14	5.8	2.15	6.41	1.76	4.6	4.04	9.49 µM	1.49	8.36	2.33	8	2.95	14.7 µM	1.63	3.82	2.89	8.91	4.55	19.5 µM
COc1cc(Cn2c(-c3ccccc3)cc3c2-c2oncc2CC3)cc(OC)c1	0.427	> 100	0.664	> 100	0.786	> 100	0.387	> 100 µM	81.2	> 100	0.0815	0.34	0.208		0.665	> 100	0.677	> 100	0.452	> 100 µM
Cc1ccc(-c2n[nH]c(=O)c3noc(-c4ccc(C)cc4)c23)cc1	1.95	> 100	10.1	43.6	3.16	73.3	3.89	> 100 µM	0.451	9.49	0.235	0.651	0.623	> 100 µM	1.26	44.9	2.07	> 100	4.86	> 100 µM
COC(=O)/C(=N\Nc1nnc(C)n1N)C(C#N)c1ccccc1 (stereo unspecified)		> 100		> 67.4		> 71.1		> 100 µM		> 100		32.5		> 100 µM		> 100		> 100		> 56.1 µM
CNC(c1ccncc1)C(NC)c1ccncc1 (stereo unspecified)		> 100		> 100		> 100		> 100 µM		> 100		> 100		> 100 µM		> 100		> 100		> 100 µM
Nc1ccn(C2OC(C(OC3OC(CO)C(O)C(N)C3O)C(O)C(O)C(O)C(O)CO)C(N)C(O)C2O)c(=O)n1 (stereo unspecified)		> 100		14.8		> 100		32.9 µM		> 100		> 100		> 100 µM		> 100		> 100		> 100 µM
COc1ccc(-c2nc(C(=O)c3ccccc3)n(CC(=O)c3ccc(Cl)cc3)c2-c2ccc(OC)cc2)cc1	> 100	> 100	> 100	> 100	> 100	> 100	> 100	> 100 µM	> 100	> 100	> 100	> 100	> 100	> 100 µM	> 100	> 100	> 100	> 100	> 100	> 100 µM
O=S(=O)(O)SCCNCCCCCC1CCCCC1		> 31		32.3		30.3		10.5 µM		8.68		18.5		41.3 µM		29.8		22.7		27.5 µM
COC(=O)C(CSC(c1ccccc1)(c1ccccc1)c1ccccc1)NC(=O)C(CC(N)=O)NC(=O)OCc1ccccc1 (stereo not drawn) (Cbz-Asn-Cys(Trt)-OMe; configuration not given here)	2.1	5.2	7.64	84.8	5.11	22.4	2.03	4.82 µM	2.12	5.49	2.13	5.2	4.48	20.8 µM	8.88	21.2	3.57	17.2	5.73	22.6 µM
Cc1c(Cl)cccc1NC(=O)c1sc2nc3c(cc2c1N)CCCC3	0.481	> 100	0.827	> 100	0.785	> 100	> 100	> 100 µM	0.46	> 100	0.226	0.775	0.396	> 100 µM	3.03	> 100	1.11	> 100	9.15	> 100 µM
CN(C(=O)CNC(=O)/C=C/c1cccc(Cl)c1)C1CCS(=O)(=O)CC1	2.12	> 100	5.9	> 100	46.4	> 100	0.663	> 100 µM	15.6	> 100	2.1	> 100	> 100	> 100 µM	47	> 100	> 100	> 100		
